We go through 33 compounds from ChEMBL document CHEMBL4483862, “Open-source discovery of chemical leads for next-generation chemoprotective antimalarials” (2018).

The assay concerns Plasmodium berghei. Put plainly: Luciferase/luciferin-expressing antifolate-resistant parasites were used to infect a culture of HepG2 cells that were pre-incubated with compounds. Infected hepatocytes emit light due to the luciferase reaction. Assay results are presented as the percent inhibition of light emission compared to control. […]. It counts as functional. The settings on record: sporozoite; for IC90: read-out: LUCIFERASE INFECTION ASSAY - IC90.

Where [1] appears, read: read-out: LUCIFERASE INFECTION ASSAY - IC50.

The IC50 is the concentration at which inhibition is half-maximal. The term IC90 denotes the concentration at which the effect reaches the 90% level. In the case of `c1cc(CNc2ncnc3nc[nH]c23)cc(COCc2ccco2)c1`, the 90% effect concentration (IC90) was over 10 µM. Moreover, the IC50 (HEPG2TOX_HILL_SLOPE 6.82, HEPG2TOX_R_SQUARED 0.307, PBLUC_HILL_SLOPE 1.97, PBLUC_R_SQUARED 0.21, read-out: LUCIFERASE INFECTION ASSAY - IC50) came out at 6.9 µM.

Regarding `Cc1nc2nc(C(F)(F)F)nn2c(C)c1CCC(=O)NCC(c1cccs1)N1CCC(C)CC1` (stereo unspecified), the IC90 is over 10 µM. The 50% inhibitory concentration (IC50) (PBLUC_HILL_SLOPE 1.88, PBLUC_R_SQUARED 0.575, read-out: LUCIFERASE INFECTION ASSAY - IC50) was found to be 6.51 µM.

Regarding `Cc1ccc(-n2c(SCCCC(=O)c3cccs3)nnc2-c2ccccc2)cc1C`, the IC90 was over 10 µM. In addition, the half-inhibitory concentration (IC50) (FFLUC_HILL_SLOPE 1.75, FFLUC_R_SQUARED 0.116, read-out: LUCIFERASE INFECTION ASSAY - IC50) was over 10 µM.

`CCOc1ccc2c(c1)O/C(=C\c1cc(Cl)cc3c1OCOC3)C2=O`: the IC90 came out at 6.53 µM. Besides, the IC50 (HEPG2TOX_HILL_SLOPE 2.45, HEPG2TOX_R_SQUARED 0.948, PBLUC_HILL_SLOPE 1.42, PBLUC_R_SQUARED 0.8, read-out: LUCIFERASE INFECTION ASSAY - IC50) is 1.39 µM.

On to `Oc1cccc(-c2cnc3cnc(-c4ccccc4)cn23)c1`, for which the IC90 is over 11.5 µM. Further, for the setting “HEPG2TOX_HILL_SLOPE 7.12, HEPG2TOX_R_SQUARED 0.466, PBLUC_HILL_SLOPE 2.24, PBLUC_R_SQUARED 0.572, read-out: LUCIFERASE INFECTION ASSAY - IC50”, the IC50 turned out to be 7.48 µM.

`Cc1ccc(C)n1-c1nc2ccc(C(=O)NCC(O)c3ccccc3)cc2s1` (stereo unspecified): the IC90 worked out at 4.67 µM. The half-inhibitory concentration (IC50) (HEPG2TOX_HILL_SLOPE 1.7, HEPG2TOX_R_SQUARED 0.986, PBLUC_HILL_SLOPE 2.65, PBLUC_R_SQUARED 0.703, read-out: LUCIFERASE INFECTION ASSAY - IC50) was 2.04 µM.

In the case of `Cc1sc2ncn(/N=C/c3ccc(N(c4ccccc4)c4ccccc4)cc3)c(=O)c2c1C`, the concentration for an effect of 90% (IC90) was found to be 4.02 µM. Besides, the IC50 (FFLUC_HILL_SLOPE 0.996, FFLUC_R_SQUARED 0.715, HEPG2TOX_HILL_SLOPE 1.1, HEPG2TOX_R_SQUARED 0.992, PBLUC_HILL_SLOPE 2.81, PBLUC_R_SQUARED 0.433, read-out: LUCIFERASE INFECTION ASSAY - IC50) is 1.84 µM.

Take `O=c1[nH]c2ccccc2c(-c2ccccc2)c1SCc1ccc2c(c1)OCO2`: the IC90 is over 10 µM. Besides, the IC50 (FFLUC_HILL_SLOPE 8.09, FFLUC_R_SQUARED 0.216, HEPG2TOX_HILL_SLOPE 4.47, HEPG2TOX_R_SQUARED 0.957, PBLUC_HILL_SLOPE 2.12, PBLUC_R_SQUARED 0.535, read-out: LUCIFERASE INFECTION ASSAY - IC50) stood at 4.38 µM.

Regarding `O=C(CSc1nn(Cc2ccccc2)/c(=N\Cc2ccccc2)s1)NC(=O)NC1CCCCC1`, the IC90 was over 10 µM. For the same compound, the half-inhibitory concentration (IC50) (FFLUC_HILL_SLOPE 7.96, FFLUC_R_SQUARED 0.22, read-out: LUCIFERASE INFECTION ASSAY - IC50) was over 10 µM.

In the case of `NC(=O)Cc1ccc(C(=O)CSc2ncnc3sc(-c4ccccc4)cc23)s1`, the IC90 was over 10 µM. Further, the IC50 (PBLUC_HILL_SLOPE 2.63, PBLUC_R_SQUARED 0.33, read-out: LUCIFERASE INFECTION ASSAY - IC50) came out at 7.38 µM.

On to `CCOC(=O)c1cc(OC)c2cccc(CN3CCCCCC3(C)C(=O)NCC(C)C)c2c1` (stereo unspecified), for which the IC90 was over 7.26 µM. Moreover, the IC50 (PBLUC_HILL_SLOPE 12.1, PBLUC_R_SQUARED 0.495, read-out: LUCIFERASE INFECTION ASSAY - IC50) worked out at 6.85 µM.

`C=CCNc1nc(-c2ccccc2)c(C(=O)OCC)cc1C#N`: the IC90 was over 10.7 µM. Further, the half-inhibitory concentration (IC50) (HEPG2TOX_HILL_SLOPE 2.72, HEPG2TOX_R_SQUARED 0.984, PBLUC_HILL_SLOPE 4, PBLUC_R_SQUARED 0.181, read-out: LUCIFERASE INFECTION ASSAY - IC50) worked out at 6.9 µM.

For `Cn1c(Sc2ncc([N+](=O)[O-])s2)n[nH]c1=O`, the IC90 came out at 7.26 µM. For the same compound, the half-inhibitory concentration (IC50) (FFLUC_HILL_SLOPE 1.35, FFLUC_R_SQUARED 0.48, HEPG2TOX_HILL_SLOPE 8.97, HEPG2TOX_R_SQUARED 0.707, PBLUC_HILL_SLOPE 6.36, PBLUC_R_SQUARED 0.781, read-out: LUCIFERASE INFECTION ASSAY - IC50) is 5.14 µM.

Consider `CCCNC(=O)C(C)NC(=O)Nc1c(C)cccc1CC` (stereo unspecified), for which the 90% effect concentration (IC90) is over 10 µM. The IC50 (PBLUC_HILL_SLOPE 13.4, PBLUC_R_SQUARED 0.0478, read-out: LUCIFERASE INFECTION ASSAY - IC50) is over 10 µM.

With `CCOc1cccc(-c2cn3c(-c4ccsc4)cnc3cn2)c1`, the IC90 is 9.69 µM. In addition, the IC50 under setting [1] stood at 5.53 µM.

Consider `CCOc1ccc(NC(=O)c2ccc(NC(=O)CSc3nncs3)cc2)cc1`, for which the concentration for an effect of 90% (IC90) is over 10 µM. Besides, the IC50 under setting [1] was over 10 µM.

On to `Oc1ccccc1/C=N/Nc1cccc(C(F)(F)F)c1`, for which the concentration for an effect of 90% (IC90) is over 11.8 µM. The half-maximal inhibitory concentration (IC50) (HEPG2TOX_HILL_SLOPE 6.57, HEPG2TOX_R_SQUARED 0.439, PBLUC_HILL_SLOPE 2.9, PBLUC_R_SQUARED 0.288, read-out: LUCIFERASE INFECTION ASSAY - IC50) is over 11.8 µM.

As for `CCOC(=O)c1c(NC(=O)CSc2nnc3n(-c4c(C)cccc4C)c(=O)c4ccccc4n23)sc(C(C)=O)c1C`, the 90% effect concentration (IC90) stood at 5.29 µM. For the same compound, for the setting “FFLUC_HILL_SLOPE 2.66, FFLUC_R_SQUARED 0.447, PBLUC_HILL_SLOPE 3.22, PBLUC_R_SQUARED 0.684, read-out: LUCIFERASE INFECTION ASSAY - IC50”, the IC50 came out at 2.67 µM.

In the case of `O=C1CC(c2ccccc2Br)c2c(ccc3ccccc23)N1` (stereo unspecified), the IC90 is over 9.37 µM. Besides, the IC50 (HEPG2TOX_HILL_SLOPE 2.07, HEPG2TOX_R_SQUARED 0.801, PBLUC_HILL_SLOPE 1.69, PBLUC_R_SQUARED 0.513, read-out: LUCIFERASE INFECTION ASSAY - IC50) amounted to 4.97 µM.

With `O=C(Nc1nc2ccccn2c1C(=O)NC1CCCC1)c1ccc(F)c(F)c1`, the concentration for an effect of 90% (IC90) came to 3.18 µM. The IC50 (FFLUC_HILL_SLOPE 26.5, FFLUC_R_SQUARED 0.0302, HEPG2TOX_HILL_SLOPE 1.05, HEPG2TOX_R_SQUARED 0.954, PBLUC_HILL_SLOPE 2.57, PBLUC_R_SQUARED 0.624, read-out: LUCIFERASE INFECTION ASSAY - IC50) worked out at 1.35 µM.

As for `COc1cc(C(=O)N(C)Cc2ccccc2N2CCOCC2)cc(OC)c1OC`, the IC90 was over 10 µM. Besides, the IC50 under setting [1] was over 10 µM.

Consider `Cc1nc(CSCC(=O)Nc2nc(-c3ccccn3)cs2)cs1`, for which the IC90 is over 10 µM. In addition, the half-inhibitory concentration (IC50) (PBLUC_HILL_SLOPE 39.1, PBLUC_R_SQUARED 0.364, read-out: LUCIFERASE INFECTION ASSAY - IC50) was 9.84 µM.

As to `CC(C)(C)c1nc(-c2ccc(N)cc2)no1`, the IC90 was 9.21 µM. Further, the 50% inhibitory concentration (IC50) (HEPG2TOX_HILL_SLOPE 0.127, HEPG2TOX_R_SQUARED 0.315, PBLUC_HILL_SLOPE 1.58, PBLUC_R_SQUARED 0.494, read-out: LUCIFERASE INFECTION ASSAY - IC50) turned out to be 2.28 µM.

For the compound `O=C(c1cnc2cc3c(cc2c1)OCCO3)c1cc(F)ccc1O`, the concentration for an effect of 90% (IC90) was found to be 2.41 µM. Further, the IC50 (HEPG2TOX_HILL_SLOPE 1.24, HEPG2TOX_R_SQUARED 0.963, PBLUC_HILL_SLOPE 1.6, PBLUC_R_SQUARED 0.807, read-out: LUCIFERASE INFECTION ASSAY - IC50) worked out at 0.612 µM.

On to `Cc1ccc(-n2nnnc2SCc2c(F)cccc2Cl)c(C)c1`, for which the 90% effect concentration (IC90) was over 9.46 µM. The IC50 (HEPG2TOX_HILL_SLOPE 2.61, HEPG2TOX_R_SQUARED 0.917, PBLUC_HILL_SLOPE 6.38, PBLUC_R_SQUARED 0.299, read-out: LUCIFERASE INFECTION ASSAY - IC50) was 8.85 µM.

In the case of `CCc1c(C(=O)Nc2ccn(CCc3ccccn3)n2)cnn1C(C)(C)C`, the concentration for an effect of 90% (IC90) turned out to be 2.23 µM. Also, for the setting “PBLUC_HILL_SLOPE 0.847, PBLUC_R_SQUARED 0.391, read-out: LUCIFERASE INFECTION ASSAY - IC50”, the IC50 was found to be 0.166 µM.

In the case of `CC(C)(C)c1ccc(NC(=O)c2cc(-c3ccccc3)ncn2)cc1`, the IC90 was over 9.96 µM. For the same compound, the IC50 (PBLUC_HILL_SLOPE 1.26, PBLUC_R_SQUARED 0.612, read-out: LUCIFERASE INFECTION ASSAY - IC50) was 2.29 µM.

Turning to `CCOc1ccccc1NS(=O)(=O)c1ccc(C(=O)OC)cc1`, the IC90 was over 10 µM. In addition, the half-maximal inhibitory concentration (IC50) (HEPG2TOX_HILL_SLOPE 3.9, HEPG2TOX_R_SQUARED 0.853, PBLUC_HILL_SLOPE 3.26, PBLUC_R_SQUARED 0.571, read-out: LUCIFERASE INFECTION ASSAY - IC50) turned out to be 7.52 µM.

For `Cc1nnc(SCCOc2ccc(C(C)(C)C)cc2)n1C1CCCCC1`, the IC90 is over 10 µM. For the same compound, the IC50 (HEPG2TOX_HILL_SLOPE 0.16, HEPG2TOX_R_SQUARED 0.182, read-out: LUCIFERASE INFECTION ASSAY - IC50) was over 10 µM.

Regarding `CN(Cc1ccc(Cl)s1)C(=O)Cn1ncc(Br)c(Br)c1=O`, the IC90 stood at 8.7 µM. Further, the half-inhibitory concentration (IC50) (HEPG2TOX_HILL_SLOPE 8.71, HEPG2TOX_R_SQUARED 0.0596, PBLUC_HILL_SLOPE 2.5, PBLUC_R_SQUARED 0.642, read-out: LUCIFERASE INFECTION ASSAY - IC50) stood at 3.61 µM.

For `Cc1nn(C(=O)c2c(Cl)cccc2Cl)c(C)c1Cc1c(F)cccc1Cl`, the IC90 is over 8.02 µM. For the same compound, under setting [1], the IC50 came to 7 µM.

Turning to `C=C(C)[C@@H]1CC=C(CN2CCC3(CC2)C(=O)N(Cc2cccnc2)C(=O)N3CCc2ccccc2)CC1`, the concentration for an effect of 90% (IC90) is over 6.62 µM. For the same compound, the IC50 (HEPG2TOX_HILL_SLOPE 8.2, HEPG2TOX_R_SQUARED 0.91, PBLUC_HILL_SLOPE 3.93, PBLUC_R_SQUARED 0.652, read-out: LUCIFERASE INFECTION ASSAY - IC50) stood at 3.82 µM.

As for `Cc1nc2c(C)cccn2c1C(=O)NN1C(=O)CSC1c1ccccc1` (stereo unspecified), the concentration for an effect of 90% (IC90) is over 8 µM. Also, under setting [1], the IC50 turned out to be 7.23 µM.
